Measurements as given in patent publication US20160238590A1, “COMPOSITIONS AND METHODS RELATED TO OAT SENSITIVITY” (IMMUSANT, INC., priority 2013, published 2016).

Assays:
Type in all cases: cell-based, human
PBMC [1] = test: IFN-γ ELISpot on PBMC of CD patients after 3-day barley challenge; conditions: after barley challenge
Excerpt: (§1) Australian Caucasian HLA-DQ2.5^+ and/or HLA-DQ8^+ CD subjects were recruited by advertisement in the Coeliac Society of Victoria newsletter and all had biopsy-proven CD conforming to ESPGHAN criteria. Patients had been on strict gluten free diet for at least 4 weeks prior to commencing grain challenge. Patients underwent 3-day grain challenge with oats, barley, or combined wheat, barley, and rye muffins, and 6 days after commencement, blood was collected. Day 0 responses were not observed in the selection of patients tested, as described previously^8.
(§2) Oats challenge consisted of 100 g dry weight daily of one of three commercial brands of oats: one not tested for wheat contamination (Uncle Toby's; Oats #1), and two shown by R5 ELISA to contain less than 20 ppm wheat gluten (Tilquhilie Pudding; Oats #2 and Freedom Food; Oats #3). Barley challenge consisted of pearl barley (Ward McKenzie) cooked into a risotto (150 g dry weight daily) and the wheat challenge consisted of four 50 g slices of wheat bread daily (Baker's Delight white loaf cut to toasting thickness). The combined wheat, barley, and rye challenge consisted of muffins baked with wheat flour (White Wings), barley flour (Four Leaf Milling), and rye flour (Four Leaf Milling; 22-25 g dry weight each daily). A symptom diary based on a […] Likert scale was completed by participants daily from baseline until day 6.
(§3) Two avenin peptide libraries were utilized for epitope screening. These were designed using avenin sequences from GenBank and a customized algorithm, as previously described^9. The initial library consisted of 199 screening-grade 20 mers including all possible 12 mers (Mimotopes). This library was screened with and without tTG pre-treatment. The second library consisted of additional avenin sequences that were synthesized with glutamate substitution at sites predicted to be deamidated by published algorithms^10, 11 removing the requirement for tTG treatment. This library contained 369 screening-grade 20 mers, including all possible 12 mers (Pepscan). The second round avenin library contained wild-type and deamidated versions of the most immunogenic sequences (25 high quality 16 mers from Mimotopes). High quality peptides containing previously described immunogenic sequences from wheat, barley, and rye were used to test for cross-reactivity^8 (Pepscan). High quality hordein and avenin peptides for TCC testing and biochemical studies were ordered from Pepscan, Mimotopes, or GL Biochem.
(§4) Peripheral blood mononuclear cells (PBMC) were isolated from heparinized whole blood using Ficoll-Paque™ Plus density-gradient centrifugation (GE Healthcare). IFN-γ ELISpot (Mabtech) was set up as previously described^8.

PBMC [2] = test: IFN-γ ELISpot on PBMC of CD patients on day 6 after 3-day oats challenge; conditions: after 3-day oats challenge
Excerpt: as §1, §2, §3, §4

Patient 2 TCC-01 = test: IFN-γ ELISpot with T cell clone; conditions: TCC Patient 2 TCC-01 (Table 5); mean no antigen 1.1
Description: as §4
(§5) Isolation of TCC from CD patients was carried out as previously described^8. Briefly, CFSE-labeled PBMC were incubated with antigen for 7 days in IMDM supplemented with 5% heat-inactivated pooled human serum (PHS), 2 mM GlutaMAX™, 100 μM MEM non-essential amino acids (both from Gibco, Invitrogen), and 50 μM 2-mercaptoethanol (Sigma). Proliferated cells were single-cell sorted into 96-well plates containing IL-2, IL-4, anti-CD3 mAb, irradiated feeder cells (allogeneic PBMC and JY-EBV). TCC were expanded and maintained in IL-2 and IL-4 and tested for specificity by ELISpot with irradiated HLA-matched PBMC as antigen-presenting cells. Expanded clones were tested for HLA-DQ restriction, TCR Vbeta usage, and with lysine scans to work out minimal epitopes. See Table 1 below for TCC and epitope information.

Patient 6 TCC-01 = test: IFN-γ ELISpot with T cell clone; conditions: TCC Patient 6 TCC-01 (Table 5); mean no antigen 2
Description: as §4, §5

Patient 14 TCC-01 = test: IFN-γ ELISpot with T cell clone; conditions: TCC Patient 14 TCC-01 (Table 5); mean no antigen 11.3, high background, SFU >25 considered as positive responses
Description: as §4, §5

| Sequence | IFN-γ ELISpot response (raw SFU) (PBMC [1]; Patient 1, peptide 50 μg/ml) [SFU] | significant SFU as a percentage of maximal peptide SFU (PBMC [1]; Patient 1, peptide 50 μg/ml) | IFN-γ ELISpot response (raw SFU) (PBMC [1]; Patient 2, peptide 50 μg/ml) [SFU] | significant SFU as a percentage of maximal peptide SFU (PBMC [1]; Patient 2, peptide 50 μg/ml) | IFN-γ ELISpot response (raw SFU) (PBMC [1]; Patient 3, peptide 50 μg/ml) [SFU] | significant SFU as a percentage of maximal peptide SFU (PBMC [1]; Patient 3, peptide 50 μg/ml) | IFN-γ ELISpot response (raw SFU) (PBMC [2]; patient P1, peptide 1 μg/ml) [SFU] | IFN-γ ELISpot response (raw SFU) (PBMC [2]; patient P1, peptide 10 μg/ml) [SFU] | IFN-γ ELISpot response (raw SFU) (PBMC [2]; patient P1, peptide 100 μg/ml) [SFU] | IFN-γ ELISpot response (raw SFU) (PBMC [2]; patient P2, peptide 1 μg/ml) [SFU] | IFN-γ ELISpot response (raw SFU) (PBMC [2]; patient P2, peptide 10 μg/ml) [SFU] | IFN-γ ELISpot response (raw SFU) (PBMC [2]; patient P2, peptide 100 μg/ml) [SFU] | significant SFU as a percentage of maximal peptide SFU (PBMC [2]; patient P2, peptide 100 μg/ml) | IFN-γ ELISpot response (raw SFU) (PBMC [2]; patient P3, peptide 1 μg/ml) [SFU] | IFN-γ ELISpot response (raw SFU) (PBMC [2]; patient P3, peptide 10 μg/ml) [SFU] | IFN-γ ELISpot response (raw SFU) (PBMC [2]; patient P3, peptide 100 μg/ml) [SFU] | IFN-γ ELISpot response (raw SFU) (PBMC [2]; patient P11, peptide 1 μg/ml) [SFU] | IFN-γ ELISpot response (raw SFU) (PBMC [2]; patient P11, peptide 10 μg/ml) [SFU] | IFN-γ ELISpot response (raw SFU) (PBMC [2]; patient P11, peptide 100 μg/ml) [SFU] | IFN-γ ELISpot response (raw SFU) (PBMC [2]; patient P12, peptide 1 μg/ml) [SFU] | further results |
| --- | --- | --- | --- | --- | --- | --- | --- | --- | --- | --- | --- | --- | --- | --- | --- | --- | --- | --- | --- | --- | --- |
| AQFDPSEQYQPYPEQQQPIL [avenin library peptide] | 35 | ^^ (^^: 10-20%) | 159 | *** (***: >70%) | 24 | ^^ (^^: 10-20%) |  |  |  |  |  |  |  |  |  |  |  |  |  |  |  |
| EQYQPYPEEQPFMQPL [partially deamidated avenin peptide] |  |  |  |  |  |  | 1 | 1 | 2 | 2 | 0 | 27 | ** (**: 40-70%) | 0 | 2 | 2 | 0 | 0 | 1 | 0 | IFN-γ ELISpot response (raw SFU) (PBMC [2]; patient P12, peptide 10 μg/ml): 0 SFU; IFN-γ ELISpot response (raw SFU) (PBMC [2]; patient P12, peptide 100 μg/ml): 0 SFU; IFN-γ ELISpot response (raw SFU) (PBMC [2]; patient P13, peptide 50 μg/ml): 0 SFU |
| EQYQPYPEQEQPFVQQQPPF [avenin library peptide] | 99 | * (*: 20-40%) | 192 | *** (***: >70%) | 14 | (^: 5-10%) |  |  |  |  |  |  |  |  |  |  |  |  |  |  | IFN-γ ELISpot response (raw SFU) (Patient 2 TCC-01): 283 SFU; IFN-γ ELISpot response (raw SFU) (Patient 6 TCC-01): 30 SFU |
| EQYQPYPEQQPFMQPL [avenin peptide] | 19 | (^: 5-10%) | 25 | ^^ (^^: 10-20%) | 33 | * (*: 20-40%) | 0 | 0 | 4 | 0 | 3 | 49 | *** (***: >70%) | 3 | 18 | 5 | 3 | 0 | 54 | 0 | significant SFU as a percentage of maximal peptide SFU (PBMC [2]; patient P3, peptide 10 μg/ml): * (*: 20-40%); significant SFU as a percentage of maximal peptide SFU (PBMC [2]; patient P11, peptide 100 μg/ml): *** (***: >70%); IFN-γ ELISpot response (raw SFU) (PBMC [2]; patient P12, peptide 10 μg/ml): 2 SFU; IFN-γ ELISpot response (raw SFU) (PBMC [2]; patient P12, peptide 100 μg/ml): 31 SFU; significant SFU as a percentage of maximal peptide SFU (PBMC [2]; patient P12, peptide 100 μg/ml): ** (**: 40-70%); IFN-γ ELISpot response (raw SFU) (PBMC [2]; patient P13, peptide 50 μg/ml): 0 SFU |
| EQYQPYPEQQQPFLQQQPLE [avenin library peptide] | 25 | (^: 5-10%) | 196 | *** (***: >70%) | 24 | ^^ (^^: 10-20%) |  |  |  |  |  |  |  |  |  |  |  |  |  |  |  |
| FPEQPIPEQPQPYP [barley peptide, 1103203A (30-43) [Q232 to E, Q37 to E]] |  |  |  |  |  |  |  |  |  |  |  |  |  |  |  |  |  |  |  |  | IFN-γ ELISpot response (raw SFU) (Patient 2 TCC-01): 1 SFU; IFN-γ ELISpot response (raw SFU) (Patient 14 TCC-01): 66 SFU; IFN-γ ELISpot response (raw SFU) (Patient 6 TCC-01): 92 SFU |
